Data published in publication PMC11242853, “The Antimicrobial Activity of Human Defensins at Physiological Non-Permeabilizing Concentrations Is Caused by the Inhibition of the Plasma Membrane H^+-ATPases” (International Journal of Molecular Sciences, 2024).
“Also recorded” adds a separate entry of the source. Where no end group is shown, it is not given here.

What was measured:
Pma1p H^+-ATPase = conditions: Table 2; no reference given
Description: A whole-cell proton transport assay was used to evaluate the possible inhibition of the fungal Pma1p H^+-ATPase by defensins.
To measure proton pumping from Pma1p H^+-ATPase activity, a glucose-induced acid extrusion assay was performed as previously described with modifications. Briefly, cultures of C. albicans cells were grown to mid-log phase in SDB medium and washed twice in 100 mM Tris-HCl (pH 8.0). The cells were then resuspended in 50 mM KCl and maintained for 18 h at 4 °C to reduce metabolic activity to a minimum (starvation conditions). To determine external acidification, starved cells (approximately 10^7 cells/mL) were incubated for 15 min at 37 °C in the presence or absence of the defensins (2 x NPIC). Cells incubated with 20 µM human lactoferrin or 0.5 µM BM2 peptide were used as positive controls. The initial pH of the cell suspension was adjusted to approximately pH 6.8 with HCl, and glucose (final concentration of 2.5 mM) was immediately added to the cell suspension. The pH of the medium was recorded at 5-min intervals for 20 min using a SevenMulti S50-K pH meter (Mettler-Toledo, Greifensee, Switzerland) with a calibrated electrode (InLab 413, Mettler-Toledo) under constant stirring. Each experiment was repeated three times in an independent manner.

C. albicans cells = assay: Total cellular ATP (BacTiter-Glo); format: cell-based, Candida albicans; conditions: for ATP increment: Table 2, no reference given; for increase in ATP levels compared to the untreated control: defensins at NPIC, human lactoferrin 5 μM, BM2 peptide 0.25 μM, 10^6 cells/mL, BacTiter-Glo luminescence
Description: Total ATP was measured using the BacTiter-Glo^TM Microbial Cell Viability Assay (Promega Co., Madison, WI, USA) according to the manufacturer’s instructions. […] Aliquots (100 µL) were incubated (90 min at 37 °C) with human defensins (NPICs). Human lactoferrin (5 μM) or BM2 peptide (0.25 μM) was used as positive controls. One hundred microliters of the incubation mixture was transferred to an opaque 96-well plate, mixed with an equal volume of BacTiter-Glo^TM reagent, and incubated for 15 min in the dark. The reagent uses a thermostable luciferase to generate luminescence in an ATP-dependent manner. The emitted luminescence was detected using a Varioskan Flash multimode reader (Thermo Scientific, Waltham, MA, USA) with a 10 s shaking and 1 s integration time. A calibration curve was generated for each experiment with ATP standards ranging from 1 to 1000 nM. All assays were performed at least three times in duplicate.

[1] = system: Pseudomonas aeruginosa PAO1; assay: Antimicrobial spread-plate (CFU) killing assay, P. aeruginosa; format: cell-based; conditions: for non-permeabilizing inhibitory concentration (NPIC), P. aeruginosa: antimicrobial concentration (≤10% viable cells) that permeabilized ≤10% of cells, 10^6 cells/mL, Tris buffer pH 7.4, 90 min at 37 °C, from Figure 1 data, duplicates of three experiments
Description: (§1) To determine whether the above microbicidal concentrations exert a permeabilizing effect on fungal and bacterial membranes, the influx of the fluorescent nucleic acid-binding dye propidium iodide (PI) in cells incubated with the peptides was assessed. In cells, dye uptake reflects membrane permeabilization, as PI itself cannot permeate through an intact phospholipid bilayer. […] To select an antimicrobial but non-permeabilizing concentration of each peptide for further assays, we defined as a non-permeabilizing inhibitory concentration (NPIC) the antimicrobial inhibitory concentration (≤10% viable cells) that permeabilized ≤ 10% of cells incubated (90 min at 37 °C) in buffer solution.
(§2) Microbial susceptibility to the peptides was determined in a spread-plate assay as described previously. Briefly, cell suspensions (10^6 cells/mL) in Tris buffer (10 mM Tris-HCl, pH 7.4) were incubated for 90 min at 37 °C with 2-fold serial peptide dilutions. Peptide concentrations ranged from 0 to 2 μM. After incubation, the number of viable cells was determined by plating aliquots (100 μL) in duplicate on plates (SDA for C. albicans, TSA for P. aeruginosa, and M17G agarified medium for L. lactis) that had been dried for 30 min at room temperature in a laminar flow hood. Plates were incubated for 24–48 h at 30 °C (C. albicans and L. lactis) or 24 h at 37 °C (P. aeruginosa). Dilutions yielding 50–200 colonies were counted. Cell viability values, expressed as colony-forming units (CFUs), were calculated relative to the incubation without added peptides and represent the means ± standard deviation (SD) from duplicates of three independent experiments. For inhibition assays, unless otherwise noted, cell suspensions were preincubated (15 min at 37 °C) with the appropriate inhibitor prior to the addition of peptides, but the inhibitor was present throughout the incubation period with the peptide (90 min at 37 °C). Other specific experimental conditions are described as appropriate. In some experiments, the concentrations of human lactoferrin against C. albicans (5 μM), P. aeruginosa (1 μM), and L. lactis (0.065 μM) were used in the control assays. In various viability assays, BM2 peptide (0.25 μM), CCCP (50 μM), colistin (4 μg/mL), nystatin (50 μM), oligomycin A (16 μg/mL), piericidin A (32 μM), and TEA (10 mM) were used.

[2] = parameters: method as in 19 sources, ref 24; PMID 3290255; doi:10.1172/JCI113527; 24. Lehrer R.I. Ganz T. Szklarek D. Selsted M.E. Modulation of the in vitro candidacidal activity of human neutrophil defensins by target cell metabolism and divalent cations J. Clin. Invest. 1988 81 || [47]; PMID 11083633; doi:10.1128/AAC.44.12.3310-3316.2000; 47. Edgerton M. Koshlukova S.E. Araujo M.W. Patel R.C. Dong J. Bruenn J.A. Salivary histatin 5 and human neutrophil defensin 1 kill Candida albicans via shared pathways Antimicrob. Agents Chemother. 2 ||| ref 20 = [20]; PMID 17074797; doi:10.1128/AAC.00478-06; 20. Vylkova S. Nayyar N. Li W. Edgerton M. Human beta-defensins kill Candida albicans in an energy-dependent and salt-sensitive manner without causing membrane disruption Antimicrob. Agents Chemother. ||| ref 24, 62 (HNP-1); 62, 63 (HNP-4); 20 (hBD-2); 12, 20 (hBD-3); 34, 35, 64 cidal and 65, 66 static (lactoferrin) ||| ref 26 (HNP-1); 12 (HNP-4); 11 (hBD-2, hBD-3); 43, 67 (lactoferrin) ||| ref 14 (HNP-1); 23 (HNP-4); Yes 11, 13 / No 20 (hBD-2); No 20 / Yes 11 (hBD-3); 31, 34, 42 (lactoferrin) ||| ...; conditions: cited from earlier work; for Cidal/static: 62 (HNP-1), 62, 63 (HNP-4), 12, 20 (hBD-3), 34, 35, 64 cidal and 65, 66 static (lactoferrin); for Cidal/static / Cell death inhibitors, extracellular: K^+ or Na^+: 20 (hBD-2); for Antimicrobial range: Gm+ Gram-positive bacteria, Gm− Gram-negative bacteria, F fungi, V viruses, P protozoa, no reference given; for Membrane permeabilization: ref 14 (HNP-1), 23 (HNP-4), Yes 11, 13 / No 20 (hBD-2), No 20 / Yes 11 (hBD-3), 31, 34, 42 (lactoferrin); for Membrane depolarization: ref 26 (HNP-1), 12 (HNP-4), 11 (hBD-2, hBD-3), 43, 67 (lactoferrin); for candidacidal activity on C. albicans cells treated with CCCP: CCCP at pH 7.4; for Cell death inhibitors, intracellular: Azide: 24 (HNP-1); for Cell death inhibitors, intracellular: Azide / Cell death inhibitors, extracellular: Ca^2+ or Mg^2+: 20 (hBD-2, hBD-3); for Cell death inhibitors, extracellular: Ca^2+ or Mg^2+: 43 (lactoferrin); for Cell death inhibitors, extracellular: K^+ or Na^+: ref 68 (HNP-1), 69 (HNP-4), No 11, 12 / Yes 20 (hBD-3), 31, 36, 43 (lactoferrin)
[3] = system: Candida albicans ATCC 10231; assay: Antimicrobial spread-plate (CFU) killing assay, C. albicans; format: cell-based; conditions: for effect of high extracellular K+ on candidacidal activity: 50 mM KCl, defensins at NPIC, hLf 5 μM, BM2 0.25 μM, nystatin 50 μM; for non-permeabilizing inhibitory concentration (NPIC), C. albicans: antimicrobial concentration (≤10% viable cells) that permeabilized ≤10% of cells, 10^6 cells/mL, Tris buffer pH 7.4, 90 min at 37 °C, from Figure 1 data, duplicates of three experiments; for effect of piericidin A on candidacidal activity: cells preincubated 15 min at 37 °C with 32 µM piericidin A, then peptides (NPIC) 90 min; for effect of oligomycin A on candidacidal activity: preincubated 15 min at 37 °C with 16 μg/mL oligomycin A, peptides at NPIC; for candidacidal activity (comparison among defensins): 0–2 μM, 90 min at 37 °C, Tris buffer
Description: as §1, §2

Substance	Inhibition of H^+-extrusion (yeast) (Pma1p H^+-ATPase)	ATP increment (C. albicans cells)	increase in ATP levels compared to the untreated control (C. albicans cells)	non-permeabilizing inhibitory concentration (NPIC), P. aeruginosa [1]	Cidal/static ([2]; Table 2)	Antimicrobial range ([2]; Table 2)	Membrane permeabilization ([2]; Table 2)	Membrane depolarization ([2]; Table 2)	effect of high extracellular K+ on candidacidal activity [3]	Cell death inhibitors, extracellular: Tok1p inhibitors (TEA) ([3]; Table 2, no reference given)	non-permeabilizing inhibitory concentration (NPIC), C. albicans [3]	effect of piericidin A on candidacidal activity [3]	effect of oligomycin A on candidacidal activity [3]	candidacidal activity on C. albicans cells treated with CCCP [2]	Cell death inhibitors, intracellular: Azide ([2]; Table 2, 34 (lactoferrin))	Cell death inhibitors, extracellular: Ca^2+ or Mg^2+ ([2]; Table 2, ref 24 (HNP-1))	Cell death inhibitors, extracellular: K^+ or Na^+ ([2]; Table 2)	candidacidal activity (comparison among defensins) [3]	other results
HNP-4: human α-defensin, UniProtKB P12838, 33 amino acids; purchased from PeptaNova (VCSCRLVFCRRTELRVGNCLIGGVSFTYCCTRV; ends and bridges not checked; cysteine pairing not given here; UniProt P12838 64-96, looked up)	Yes	Yes	~ 8 fold	0.25 µM	Cidal	Gm +,Gm −,F,V	Yes	Yes	significantly protected	Yes [69] ND Yes ND ND ND ND ND ND	0.25 µM	significantly less susceptible	significantly (p < 0.001) less susceptible	–	–	–	–	–	–
HNP-1: human α-defensin, UniProtKB P59665, 30 amino acids, three disulfide bonds; purchased from PeptaNova	Yes	–	~ 7 fold	0.5 µM	Cidal	Gm +,Gm −,F,V,P	Yes	Yes	significantly protected	Yes	0.25 µM	significantly less susceptible	significantly (p < 0.001) less susceptible	protected	Yes	Yes (Ca^2+); also recorded: No (Mg^2+)	Yes	highest candidacidal activity	effect of piericidin A on bactericidal activity, P. aeruginosa ([1]; cells pretreated with 32 µM piericidin A, defensins at NPIC): significantly (p < 0.001) protected; effect of CCCP on bactericidal activity, P. aeruginosa ([1]; preincubated 15 min at 37 °C with 50 µM CCCP at pH 7.4, peptides at NPIC): significant reduction; ATP-efflux ([2]; Table 2): Yes; Cell death inhibitors, intracellular: Antimycin A (+SHAM) ([2]; Table 2): Yes; Cell death inhibitors, intracellular: CCCP or DNP ([2]; Table 2, ref 24 (HNP-1), 34 (lactoferrin)): Yes; Cell death inhibitors, extracellular: Anoxia ([2]; Table 2, ref 24 (HNP-1), 34, 35 (lactoferrin)): Yes; ATP increment ([2]; Table 2, ref 47 (HNP-1), 35 (lactoferrin)): Yes; Cell death inhibitors, intracellular: Oligomycin A ([3]; Table 2, no reference given): Yes; Cell death inhibitors, intracellular: Piericidin A ([3]; Table 2, no reference given, tested on C. albicans and P. aeruginosa in this study): Yes
hBD-3: human β-defensin, UniProtKB Q5U7J2, 45 amino acids; purchased from PeptaNova (GIINTLQKYYCRVRGGRCAVLSCLPKEEQIGKCSTRGRKCCRRKK; Beta-defensin 103; UniProt P81534 23-67, looked up)	Yes	Yes	~ 6 fold	0.25 µM	Cidal	Gm +,Gm −, F,V,P	–	Yes	significantly protected	Yes	0.125 µM	significantly less susceptible	significantly (p < 0.001) less susceptible	protected	Yes	No	No and Yes	highest candidacidal activity	pseudomonacidal activity (comparison among defensins) ([1]; 0–2 μM, 90 min at 37 °C, Tris buffer): most potent pseudomonacidal activity
